Reference: patent US10314841B2, “Substituted pyrazoles as IRAK inhibitors” (Merck Patent GmbH, priority 2014, dated 2019)
Read-outs that look alike come from different tables or passages of the source.

Assays:
IRAK4 (His-TEV-IRAK4) = target: T1, IRAK4 (His-TEV-IRAK4) (Homo sapiens, UniProt Q9NWZ3); assay: IRAK4 enzymatic assay; type: biochemical; settings: human recombinant His-TEV-IRAK4, ATP 2 μM, STK1-biotin peptide 300 nM, 3 hours at 30° C., FlashPlate
T1 construct: His (N); TEV cleavage site (N)
T1 sequence (Q9NWZ3 1-460): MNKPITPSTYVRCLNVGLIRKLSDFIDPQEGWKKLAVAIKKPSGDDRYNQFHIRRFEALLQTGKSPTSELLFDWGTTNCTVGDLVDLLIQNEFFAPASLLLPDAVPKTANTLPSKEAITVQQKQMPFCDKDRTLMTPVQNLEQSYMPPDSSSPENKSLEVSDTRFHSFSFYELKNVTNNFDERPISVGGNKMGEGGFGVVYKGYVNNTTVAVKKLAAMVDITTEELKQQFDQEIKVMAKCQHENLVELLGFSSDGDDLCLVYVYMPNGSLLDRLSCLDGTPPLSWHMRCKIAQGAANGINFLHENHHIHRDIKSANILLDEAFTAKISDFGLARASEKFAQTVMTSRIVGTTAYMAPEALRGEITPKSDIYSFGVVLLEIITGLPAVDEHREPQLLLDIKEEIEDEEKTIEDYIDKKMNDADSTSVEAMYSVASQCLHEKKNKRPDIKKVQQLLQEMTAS
Description: IRAK4 Enzymatic Assay IRAK4 is a human purified recombinant enzyme (His-TEV-[…] (194-712). IRAK4 hydrolyses ATP, autophosphorylates and phosphorylates a Serine/Threonine generic peptidic substrate (STK: 61 ST1BLC from CisBio International based in Bagnols/Cèze FR). Measurement of IRAK-4 inhibition was performed in streptavidin coated 384 well FlashPlate (PerkinElmer #SM[…]). His-TEV-IRAK4 (20 ng/well), ATP (2 μM, [^33P]ATP 0.25 μCi/well), STK1-biotin peptide (300 nM) and compounds in DMSO (range of concentrations from 20 μM to 1 nM) or controls (2% DMSO) were incubated for 3 hours at 30° C. in assay buffer: Hepes pH7.0 50 mM, Fatty acid-free BSA 0.1%, Dithiothreitol DTT 2 mM, MgCl2 10 mM, EGTA 0.5 mM, Tween-20 0.01%, MnCl2 5 mM. Kinase reaction was stopped by addition of EDTA. Supernatant was discarded, plates were washed three times with 150 mM NaCl and radioactivity was then measured in a Microbeta Trilux reader.

[1] = test system: TLR7 induced IL-6 secretion in human PBMC's; assay: TLR7 induced IL-6 in human PBMC's; type: cell-based; settings: read-out: TLR7 induced IL-6 secretion in hPBMC's (IC50)
Description: TLR7 Induced IL-6 in Human PBMC's Human PBMC assay was used as one of the functional assays to monitor the activity of IRAK1 and IRAK4 small molecule inhibitors on TLR7 induced IL-6 secretion in human mononuclear cells (PBMC's). Human PBMCs were prepared from buffy coats (whole blood enriched with leukocytes and platelets) obtained from healthy volunteers used either fresh or frozen are plated in assay media (RPMI+2% P/S/L-glu+10% HI-FBS) and pre-treated with compounds in DMSO/media (range of concentrations from 25 uM to 0.4 nM) or controls (0.25% DMSO) for 30 minutes at 37° C. in assay media. Following pre-treatment with IRAK1 and IRAK4 inhibitors, PBMC's were stimulated with TLR7 specific ligand (2 uM) overnight (16-18 hrs) at 37° C. After incubation supernatant was transferred to 384 well PE AlphaPlate-384 (6005350) and IL-6 is quantified using Perkin Elmer IL-6 Alpha LISA kit (A[…]). Plates were read on an Envision® plate reader with Alpha Technology®.

[2] = target: T2, IRAK1 (His-TEV-IRAK1 (194-712)) (Homo sapiens, UniProt P51617); assay: IRAK1 enzymatic assay; type: biochemical; settings: human recombinant His-TEV-IRAK1, ATP 1 μM, 3 hours at 30° C., FlashPlate
T2 construct: His-TEV-IRAK1 (194-712); His (N); TEV cleavage site (N)
Description: IRAK1 Enzymatic Assay IRAK1 is a human purified recombinant enzyme (His-TEV-IRAK1 (194-712)). In this assay, IRAK-1 hydrolyses ATP and autophosphorylates. Measurement of IRAK-1 inhibition was performed in streptavidin coated 384 well FlashPlate (PerkinElmer #SM[…]). His-TEV-IRAK-1 (15 ng/well), ATP (1 μ[…]]ATP 0.25 μCi/well) and compounds in DMSO (range of concentrations from 20 μM to 1 nM) or controls (2% DMSO) were incubated for 3 hours at 30° C. in assay buffer: Hepes pH7.0 50 mM, Fatty acid-free BSA 0.1%, Dithiothreitol DTT 2 mM, MgCl2 10 mM, EGTA 0.5 mM, Triton-X-100 0.01%. Kinase reaction was stopped by addition of EDTA. Supernatant was discarded, plates were washed three times with 150 mM NaCl and radioactivity was then measured in a Microbeta Trilux reader.

[3] = human PBMC, TLR7 specific ligand 2 uM overnight, IL-6 Alpha LISA

T2 sequence (P51617 194-712): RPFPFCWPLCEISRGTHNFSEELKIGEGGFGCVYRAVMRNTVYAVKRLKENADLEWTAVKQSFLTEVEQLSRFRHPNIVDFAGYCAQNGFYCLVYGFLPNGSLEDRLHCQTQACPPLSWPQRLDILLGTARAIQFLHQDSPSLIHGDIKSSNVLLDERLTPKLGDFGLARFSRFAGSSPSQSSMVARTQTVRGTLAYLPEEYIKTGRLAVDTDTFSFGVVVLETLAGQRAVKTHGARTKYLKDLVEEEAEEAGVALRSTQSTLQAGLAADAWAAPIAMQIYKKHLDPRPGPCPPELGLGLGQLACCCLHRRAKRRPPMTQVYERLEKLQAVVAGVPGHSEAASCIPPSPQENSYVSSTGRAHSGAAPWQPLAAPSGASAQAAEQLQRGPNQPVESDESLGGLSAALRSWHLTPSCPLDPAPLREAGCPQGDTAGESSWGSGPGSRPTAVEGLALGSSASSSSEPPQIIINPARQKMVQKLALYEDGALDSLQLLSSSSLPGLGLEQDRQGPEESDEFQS

| IC50 (IRAK4 (His-TEV-IRAK4)) [nM] | IC50 [2] [nM] | Structure (SMILES) | IC50 [1, 3] [nM] | IC50 ([1]; Homo sapiens, PBMC) [nM] |
| --- | --- | --- | --- | --- |
| 100 to 1000 | 100 to 1000 | Cn1cc(-c2cccc(-c3ncc(-c4cnn(C5CCNCC5CO)c4)cn3)c2)cn1 (mixture of isomers) [Compound 26, [4-(4-{2-[3-(1-Methyl-1H-pyrazol-4-yl)-phenyl]-pyrimidin-5-yl}-pyrazol-1-yl)-piperidin-3-yl]-methanol] | 1000 to 20000 |  |
| < 100 | < 100 | C=CS(=O)(=O)N[C@@H]1CCC[C@H](n2cc(-c3cnc(-c4cccc(-c5cnn(C)c5)c4)nc3)cn2)C1 (racemic) [Compound 33] | 100 to 1000 |  |
| < 100 | 100 to 1000 | Cn1cc(-c2cccc(-c3ncc(-c4cnn([C@H]5CCC[C@H](NCCO)C5)c4)cn3)c2)cn1 (relative stereo) [Compound 2, 2-[Trans-3-(4-{2-[3-(1-Methyl-1H-pyrazol-4-yl)-phenyl]-pyrimidin-5-yl}-pyrazol-1-yl)-cyclohexylamino]-ethanol] | 1000 to 20000 |  |
| < 100 | 100 to 1000 | Cn1cc(-c2cccc(-c3ncc(-c4cnn([C@H]5CCC[C@H](N6CCOCC6=O)C5)c4)cn3)c2)cn1 (relative stereo) [Compound 3, 4-[Trans-3-(4-{2-[3-(1-Methyl-1H-pyrazol-4-yl)-phenyl]-pyrimidin-5-yl}-pyrazol-1-yl)-cyclohexyl]-morpholin-3-one] | 100 to 1000 |  |
| < 100 | 100 to 1000 | Cn1cc(-c2cccc(-c3ncc(-c4cnn([C@H]5CCC[C@@H](N6CCOCC6)C5)c4)cn3)c2)cn1 (relative stereo) [Compound 4, 4-[Cis-3-(4-{2-[3-(1-Methyl-1H-pyrazol-4-yl)-phenyl]-pyrimidin-5-yl}-pyrazol-1-yl)-cyclohexyl]-morpholine] | 100 to 1000 |  |
| < 100 | 100 to 1000 | Cn1cc(-c2cccc(-c3ncc(-c4cnn([C@H]5CCC[C@H](S(C)(=N)=O)C5)c4)cn3)c2)cn1 (relative stereo) [Compound 35] | 1000 to 20000 |  |
| < 100 | < 100 | C=CC(=O)N[C@@H]1CCC[C@H](n2cc(-c3cnc(-c4cccc(-c5cnn(C)c5)c4)nc3)cn2)C1 (relative stereo) [Compound 36] | 100 to 1000 |  |
| < 100 | < 100 | C=CS(=O)(=O)N[C@H]1CCC[C@H](n2cc(-c3cnc(-c4cccc(-c5cnn(C)c5)c4)nc3)cn2)C1 (relative stereo) [Compound 37, Ethenesulfonic acid [Trans-3-(4-{2-[3-(1-methyl-1H-pyrazol-4-yl)-phenyl]-pyrimidin-5-yl}-pyrazol-1-yl)-cyclohexyl]-amide] | 100 to 1000 |  |
| < 100 | 100 to 1000 | Cn1cc(-c2cccc(-c3ncc(-c4cnn([C@@H]5CCC[C@@H](NS(C)(=O)=O)C5)c4)cn3)c2)cn1 (single isomer, unassigned) [Compound 27] | 100 to 1000 |  |
| 100 to 1000 | 100 to 1000 | Cn1cc(-c2cccc(-c3ncc(-c4cnn([C@H]5CCC[C@@H](NS(C)(=O)=O)C5)c4)cn3)c2)cn1 (single isomer, unassigned) [Compound 28] | 1000 to 20000 |  |
| < 100 | < 100 | Cn1cc(-c2cccc(-c3ncc(-c4cnn(C5CCCC(NC(=O)OC(C)(C)C)C5)c4)cn3)c2)cn1 (stereo not drawn) [Compound 9, [3-(4-{2-[3-(1-Methyl-1H-pyrazol-4-yl)-phenyl]-pyrimidin-5-yl}-pyrazol-1-yl)-cyclohexyl]-carbamic acid tert-butyl ester] | 1000 to 20000 |  |
| < 100 | 100 to 1000 | C=CC(=O)N1CCC(n2cc(-c3cnc(-c4cccc(-c5cnn(C)c5)c4)nc3)cn2)CC1 [Compound 10, 1-[4-(4-{2-[3-(1-Methyl-1H-pyrazol-4-yl)-phenyl]-pyrimidin-5-yl}-pyrazol-1-yl)-piperidin-1-yl]-propenone] | 100 to 1000 |  |
| < 100 | 100 to 1000 | Cn1cc(-c2cccc(-c3ncc(-c4cnn(C5CCCC(N6CCC(F)(F)CC6)C5)c4)cn3)c2)cn1 (stereo not drawn) [Compound 11, 5-{1-[3-(4,4-Difluoro-piperidin-1-yl)-cyclohexyl]-1H-pyrazol-4-yl}-2-[3-(1-methyl-1H-pyrazol-4-yl)-phenyl]-pyrimidine] | 100 to 1000 |  |
| < 100 | < 100 | Cn1cc(-c2cccc(-c3ncc(-c4cnn(C5CCC[C@@H](NC6CCOC6)C5)c4)cn3)c2)cn1 (stereo partly drawn) [Compound 12, [3-Cis-(4-{2-[3-(1-Methyl-1H-pyrazol-4-yl)-phenyl]-pyrimidin-5-yl}-pyrazol-1-yl)-cyclohexyl]-(tetrahydro-furan-3-yl)-amine] | 100 to 1000 |  |
| < 100 | 100 to 1000 | C=CC(=O)N1CCCC(n2cc(-c3cnc(-c4cccc(-c5cnn(C)c5)c4)nc3)cn2)C1 (stereo not drawn) [Compound 14, 1-[3-(4-{2-[3-(1-Methyl-1H-pyrazol-4-yl)-phenyl]-pyrimidin-5-yl}-pyrazol-1-yl)-piperidin-1-yl]-propenone] | 100 to 1000 |  |
| < 100 | < 100 | C=CC(=O)NC1CCCC(n2cc(-c3cnc(-c4cccc(-c5cnn(C)c5)c4)nc3)cn2)C1 (stereo not drawn) [Compound 15, N-[3-(4-{2-[3-(1-Methyl-1H-pyrazol-4-yl)-phenyl]-pyrimidin-5-yl}-pyrazol-1-yl)-cyclohexyl]-acrylamide] | < 100 |  |
| < 100 | < 100 | C=CS(=O)(=O)N1CCCC(n2cc(-c3cnc(-c4cccc(-c5cnn(C)c5)c4)nc3)cn2)C1 (stereo not drawn) [Compound 17, 5-[1-(1-Ethenesulfonyl-piperidin-3-yl)-1H-pyrazol-4-yl]-2-[3-(1-methyl-1H-pyrazol-4-yl)-phenyl]-pyrimidine] | < 100 |  |
| < 100 | < 100 | C=CS(=O)(=O)N1CCC(n2cc(-c3cnc(-c4cccc(-c5cnn(C)c5)c4)nc3)cn2)CC1 [Compound 18, 5-[1-(1-Ethenesulfonyl-piperidin-4-yl)-1H-pyrazol-4-yl]-2-[3-(1-methyl-1H-pyrazol-4-yl)-phenyl]-pyrimidine] | < 100 |  |
| < 100 | 100 to 1000 | Cn1cc(-c2cccc(-c3ncc(-c4cnn(C5CCC[C@@H](S(C)(=N)=O)C5)c4)cn3)c2)cn1 (stereo partly drawn) [Compound 34, imino(methyl)(Cis-3-(4-(2-(3-(1-methyl-1H-pyrazol-4-yl)phenyl)pyrimidin-5-yl)-1H-pyrazol-1-yl)cyclohexyl)-I6-sulfanone] | 1000 to 20000 |  |

| Structure (SMILES) | IC50 (IRAK4 (His-TEV-IRAK4)) [nM] | IC50 [2] [nM] | IC50 [1, 3] [nM] | IC50 ([1]; Homo sapiens, PBMC) [nM] |
| --- | --- | --- | --- | --- |
| Cn1cc(-c2cccc(-c3ncc(-c4cnn(C5CCCC(C(=O)O)C5)c4)cn3)c2)cn1 (mixture of isomers) [Compound 41, Lithium 3-(4-{2-[3-(1-Methyl-1H-pyrazol-4-yl)-phenyl]-pyrimidin-5-yl}-pyrazol-1-yl)-cyclohexanecarboxylate] | 100 to 1000 | 1000 to 20000 |  | 1000 to 20000 |
